Measurements from patent US4593104A, “2-halo-N-(azole-1-yl-methyl)-substituted acetanilides” (BASF Aktiengesellschaft, priority 1976, dated 1986).

What was measured:
Alopec. myosur. [1] = experiment: preemergence treatment in the greenhouse, % damage; format: in vivo
From the text: (§1) The vessels employed were plastic flowerpots having a volume of 300 cm^3; the substrate was a sandy loam containing about 1.5% humus. The seeds of the test plants (see Table 1) were sown shallow, and separated according to species. In the case of Cyperus esculentus, pregerminated tubers were planted. In the preemergence treatment, the active ingredients were then immediately applied to the surface of the soil. They were suspended or emulsified in water as the vehicle, and sprayed through atomizing nozzles. After the agents had been applied, the vessels were lightly sprinkler-irrigated to set germination and growth going, and to activate the chemical agents. The vessels were then covered with transparent plastic hoods until the plants had taken root. This cover ensured uniform germination of the test plants (to the extent that this was not impaired by the chemicals), and prevented readily volatile substances from evaporating.
(§2) For postemergence treatment, the plants were first grown to a height of from 3 to 10 cm, depending on their habit, before treated. Hoods were not placed on the pots. The experiments were set up in the greenhouse, hotter areas (25° to 40° C.) being preferred for heat-loving species, and 15° to 30° C. for plants from moderate climates. The experiments were carried out for from 4 to 6 weeks. During this period the plants were tended and their reaction to the various treatments was assessed. The following tables contain the substances investigated, the application rates in kg/ha of active ingredient, and the test plant species. Assessments were made on a 0 to 100 scale, 0 denoting no damage or normal emergence, and 100 denoting no emergence or complete destruction of at least the visible plant parts.

Bromus spp. = experiment: preemergence treatment in the greenhouse, % damage; format: in vivo
From the text: as §1, §2

Cyperus ferax = experiment: preemergence treatment in the greenhouse, % damage; format: in vivo
From the text: as §1, §2

Echin. c.g. = experiment: preemergence treatment in the greenhouse, % damage; format: in vivo
From the text: as §1, §2

Matric. spp. = experiment: preemergence treatment in the greenhouse, % damage; format: in vivo
From the text: as §1, §2

Setaria spp. [2] = experiment: preemergence treatment in the greenhouse, % damage; format: in vivo
From the text: as §1, §2

Glyc. max = experiment: preemergence treatment in the greenhouse, % damage; format: in vivo, Glycine max
From the text: as §1, §2

Beta vulg. = experiment: preemergence treatment in the greenhouse, % damage; format: in vivo, Beta vulgaris
From the text: as §1, §2

Brassica napus [3] = experiment: preemergence treatment in the greenhouse, % damage; format: in vivo
From the text: as §1, §2

Solanum nigrum = experiment: preemergence treatment in the greenhouse, % damage; format: in vivo
From the text: as §1, §2

Zea mays = experiment: preemergence treatment in the greenhouse, % damage; format: in vivo
From the text: as §1, §2

Amar. retro. = experiment: preemergence treatment in the greenhouse, % damage; format: in vivo
From the text: as §1, §2

Cyp. diff. = experiment: preemergence treatment in the greenhouse, % damage; format: in vivo
From the text: as §1, §2

Poa annua = experiment: preemergence treatment in the greenhouse, % damage; format: in vivo
From the text: as §1, §2

Sorgh. halep. = experiment: preemergence treatment in the greenhouse, % damage; format: in vivo
From the text: as §1, §2

Alopec. myosur. [4] = experiment: preemergence application in the open, % damage; format: in vivo
Description: (§3) The experiments were carried out on small plots. The soil was a sandy loam having a pH of from 5 to 6 and containing from 1 to 1.5% humus. The treatment was preemergence, the active ingredients being applied immediately or at the latest 3 days after sowing. The crop plants were sown in rows. The weed flora was made up of the most widely varying species and was natural; the weed flora depended on the time of the year and in part on the crop (e.g., spring-germinating, summer-germinating). The substances were emulsified or suspended in water as the vehicle, and applied by means of a motor-driven plot spray mounted on a hitch. When no rain fell, the plots were watered to ensure germination and growth of the crop plants and weeds. All the experiments were run for several weeks. Over this period, assessments were made at certain intervals on the 0 to 100 scale.

Anth./Matric. = experiment: preemergence application in the open, % damage; format: in vivo
Description: as §3

Brassica napus [5] = experiment: preemergence application in the open, % damage; format: in vivo
Description: as §3

Lamium spp. = experiment: preemergence application in the open, % damage; format: in vivo
Description: as §3

Stellaria media = experiment: preemergence application in the open, % damage; format: in vivo
Description: as §3

Avena fat. = experiment: postemergence application in the greenhouse, % damage; format: in vivo
From the text: as §1, §2

Setaria spp. [6] = experiment: as above; format: in vivo
From the text: as §1, §2

Stell. med. = experiment: as above; format: in vivo
From the text: as §1, §2

Cyper. escul. = experiment: as above; format: in vivo, Cyperus esculentus
From the text: as §1, §2

Row | Compound | % damage (Alopec. myosur. [1]; 1.0 kg/ha) [%] | % damage (Bromus spp.; 1.0 kg/ha) [%] | % damage (Cyperus ferax; 1.0 kg/ha) [%] | % damage (Echin. c.g.; 1.0 kg/ha) [%] | % damage (Matric. spp.; 1.0 kg/ha) [%] | % damage (Setaria spp. [2]; 1.0 kg/ha) [%] | % damage (Glyc. max; 1.0 kg/ha) [%] | % damage (Alopec. myosur. [1]; 2.0 kg/ha) [%] | % damage (Brassica napus [3]; 2.0 kg/ha) [%] | % damage (Bromus spp.; 2.0 kg/ha) [%] | % damage (Echin. c.g.; 2.0 kg/ha) [%] | % damage (Matric. spp.; 2.0 kg/ha) [%] | % damage (Setaria spp. [2]; 2.0 kg/ha) [%] | % damage (Solanum nigrum; 2.0 kg/ha) [%] | % damage (Zea mays; 2.0 kg/ha) [%] | % damage (Alopec. myosur. [4]; 2.0 kg/ha) [%] | % damage (Brassica napus [5]; 2.0 kg/ha) [%] | % damage (Lamium spp.; 2.0 kg/ha) [%] | % damage (Stellaria media; 2.0 kg/ha) [%] | further results
1 | CCc1cccc(C)c1N(Cn1cc(OC)cn1)C(=O)CCl | 100 | 98 | 100 | 100 | 98 | 100 | 0 |  |  |  |  |  |  |  |  |  |  |  |  | % damage (Alopec. myosur. [1]; 0.5 kg/ha): 100%; % damage (Bromus spp.; 0.5 kg/ha): 90%; % damage (Cyperus ferax; 0.5 kg/ha): 100%; % damage (Echin. c.g.; 0.5 kg/ha): 100%; % damage (Matric. spp.; 0.5 kg/ha): 98%; % damage (Setaria spp. [2]; 0.5 kg/ha): 100%; % damage (Glyc. max; 0.5 kg/ha): 0%; % damage (Beta vulg.; 0.5 kg/ha): 5%; % damage (Beta vulg.; 1.0 kg/ha): 15%
2 | Cc1ccccc1N(Cn1cccn1)C(=O)CCl |  |  |  |  |  |  |  | 90 | 0 | 80 | 95 | 90 | 95 | 95 | 15 |  |  |  |  | 
3 | Cc1cc(C)n(CN(C(=O)CCl)c2c(C)cccc2C)n1 [Compound 38] |  |  |  |  |  |  |  |  |  |  |  |  |  |  |  | 80 | 0 | 100 | 88 | % damage (Amar. retro.; 0.125 kg/ha): 75%; % damage (Amar. retro.; 0.25 kg/ha): 100%; % damage (Bromus spp.; 0.125 kg/ha): 95%; % damage (Bromus spp.; 0.25 kg/ha): 100%; % damage (Cyp. diff.; 0.125 kg/ha): 100%; % damage (Cyp. diff.; 0.25 kg/ha): 100%; % damage (Poa annua; 0.125 kg/ha): 100%; % damage (Poa annua; 0.25 kg/ha): 100%; % damage (Sorgh. halep.; 0.125 kg/ha): 70%; % damage (Sorgh. halep.; 0.25 kg/ha): 95%; % damage (Anth./Matric.; 2.0 kg/ha): 100%; % damage (Avena fat.; 1.0 kg/ha): 70%; % damage (Avena fat.; 2.0 kg/ha): 90%; % damage (Setaria spp. [6]; 1.0 kg/ha): 85%; % damage (Setaria spp. [6]; 2.0 kg/ha): 85%; % damage (Stell. med.; 1.0 kg/ha): 100%; % damage (Stell. med.; 2.0 kg/ha): 100%; % damage (Cyper. escul.; 1.0 kg/ha): 80%; % damage (Cyper. escul.; 2.0 kg/ha): 80%
4 | CCc1cccc(CC)c1N(Cn1cc(OC)cn1)C(=O)CCl | 99 | 98 | 100 | 100 | 90 | 100 | 0 | 99 |  | 98 | 100 | 98 | 100 |  |  |  |  |  |  | % damage (Cyperus ferax; 2.0 kg/ha): 100%; % damage (Glyc. max; 2.0 kg/ha): 0%; % damage (Beta vulg.; 1.0 kg/ha): 10%; % damage (Beta vulg.; 2.0 kg/ha): 15%
5 | Cc1ccccc1N(Cn1nc(C)c(C)c1C)C(=O)CCl |  |  |  |  |  |  |  | 50 | 30 | 80 | 55 | 95 | 100 | 100 | 10 |  |  |  |  | 
6 | Cc1ccccc1N(Cn1nccc1C)C(=O)CCl |  |  |  |  |  |  |  | 90 | 10 | 90 | 95 | 90 | 100 | 100 | 0 |  |  |  |  | 
7 | COc1cnn(CN(C(=O)CCl)c2c(C)cccc2C)c1 | 100 | 100 | 100 | 100 | 95 | 100 | 0 |  |  |  |  |  |  |  |  |  |  |  |  | % damage (Alopec. myosur. [1]; 0.5 kg/ha): 100%; % damage (Bromus spp.; 0.5 kg/ha): 100%; % damage (Cyperus ferax; 0.5 kg/ha): 100%; % damage (Echin. c.g.; 0.5 kg/ha): 100%; % damage (Matric. spp.; 0.5 kg/ha): 95%; % damage (Setaria spp. [2]; 0.5 kg/ha): 100%; % damage (Glyc. max; 0.5 kg/ha): 0%
8 | CCc1cccc(C)c1N(Cn1cncn1)C(=O)CCl [Compound 191] |  |  |  |  |  |  |  |  |  |  |  |  |  |  |  | 30 | 5 | 40 | 18 | % damage (Alopec. myosur. [4]; 4.0 kg/ha): 80%; % damage (Anth./Matric.; 2.0 kg/ha): 53%; % damage (Brassica napus [5]; 4.0 kg/ha): 20%; % damage (Lamium spp.; 4.0 kg/ha): 85%; % damage (Stellaria media; 4.0 kg/ha): 45%
9 | Cc1cc(C)n(CN(C(=O)CCl)c2ccccc2C)n1 | 85 | 95 |  | 85 | 90 | 60 |  |  |  |  |  |  |  |  |  |  |  |  |  | % damage (Brassica napus [3]; 1.0 kg/ha): 10%; % damage (Solanum nigrum; 1.0 kg/ha): 100%; % damage (Zea mays; 1.0 kg/ha): 0%
10 | CCc1cccc(C)c1N(Cn1cncn1)C(=O)CCl [Compound 129] |  |  |  |  |  |  |  |  |  |  |  |  |  |  |  | 35 | 7.5 | 45 | 24 | % damage (Alopec. myosur. [4]; 4.0 kg/ha): 68%; % damage (Anth./Matric.; one value printed for two rates (2.0 4.0 kg/ha)): 35%; % damage (Brassica napus [5]; 4.0 kg/ha): 22.5%; % damage (Lamium spp.; 4.0 kg/ha): 90%; % damage (Stellaria media; 4.0 kg/ha): 49%
